Laboratory results reported in US20240093150A1, “IMPROVED T-CELLS FOR CANCER THERAPY USING AMINO ACID STARVATION PATHWAYS” (UNIVERSITY HEALTH NETWORK, priority 2021, published 2024).

How the values were obtained:
[1] = system: P14 CD8+ T cells; test: Flow cytometry of activated mouse CD8+ T cells treated with halofuginone (cytokines, surface markers, phosphoflow, autophagosome staining); assay type: cell-based; details: for IFN-γ in halo-treated cells: inhibitor concurrent with Halofuginone (3-MA 2.5 mM; Oligomycin 1 uM)
[2] = system: CD8+ T cells; test: Seahorse and ATP quantification in halo-treated mouse CD8+ T cells; assay type: cell-based; details: for enhanced OXPHOS (basal OCR) in halo-treated cells: inhibitor added concurrent with Halofuginone (3-MA 2.5 mM)
[3] = system: CD8+ T cells; test: Ribo-Seq / RNA-seq gene expression profiling of halo-treated CD8+ T cells; assay type: cell-based, mouse; details: halo vs vehicle
[4] = system: CD8+ T cells; test: Targeted mass spectrometry metabolic profile of halo-treated cells; assay type: cell-based, mouse; details: halo vs vehicle
Description: Seahorse was performed as previously described (Saibil et al., 2019). ATP quantification was performed using a commercial kit (Sigma) according to the recommended protocol. For metabolic profiling of Halo treated cells, mass spectrometry was performed on metabolites extracted from cell pellets. Briefly, cell pellets were washed and snap frozen in 1 ml 80% methanol. Samples were probe sonicated for 5 seconds, power level 3 (Fisher Scientific Model 100 Sonicator). 5 ul of internal standard (Isotopically labeled amino acids, 1.25 mM, PN MSK-A2-1.2, Cambridge Isotope Laboratories) was added to a 100 ul aliquot of supernatant. 10 ul of this solution was diluted in 990 ul of buffer containing 95% acetonitrile, 5% 20 mM ammonium carbonate (pH 9.8). Quality control samples (QCs) were prepared by pooling 100 μl of each sample. All samples including QCs, where then analyzed by selected reaction monitoring (SRM) using a Waters XBridge Amide 1.0×50 mm, 3.5 μm column and a 10 mM ammonium carbonate (pH 10) acetonitrile buffer system coupled with a Sciex Qtrap 5500 triple quadrupole linear ion trap tandem mass spectrometer. The data acquisition included 317 transitions. Data were captured using Analyst, version 1.6.2 software (Sciex); peak integration was performed using Skyline, version 4.1 (Pino et al., 2020). […]

[5] = system: human CD8+ T cells; test: Human CD8+ T cells activated in the presence of halofuginone (Seahorse, flow cytometry, DMF5 TCR transduction); assay type: cell-based
Description: Peripheral blood mononuclear cells were obtained from healthy donors following institutional review board approval. Written informed consent was obtained from all donors who provided the samples. PBMCs were magnetically sorted for naïve CD8+ T cells (Miltenyi Biotec) and activated with CD3/CD28 Dynabeads (Invitrogen) at 1:1 ratio in complete IMDM for 5 days in the presence of Halo (12.5 ng/mL) or vehicle control. For DMF5 TCR transduction, purified naïve CD8+ T cells were stimulated with CD3/CD28 Dynabeads at 1:1 ratio in complete IMDM media and 100 IU/ml recombinant human IL-2. Two days after stimulation, T cells were infection with PG13-derived virus encoding DMF5 TCR and a truncated NGFR tag, separated by 2A sequences. Halofuginone (12.5 ng/mL) or vehicle control was added on days 0 and 2. Phenotype was analyzed on day 5.

[6] = Halo 50 ng/mL last 48 hours, vs vehicle

In the case of `Cn1cnc(N)c2ncnc1-2` [3MA], the “4-1BB or granzyme B expression in halo-treated cells” value ([1]; cultured in the presence of 3MA 2.5 mM) is reported as “no difference”, the “IFN-γ in halo-treated cells” value [1] is reported as “marked reduction” and the “OXPHOS in vehicle-treated cells” value ([2]; 3-MA 2.5 mM) is reported as “no effect”. For the same molecule, the “enhanced OXPHOS (basal OCR) in halo-treated cells” value [2] was “entirely abrogated”.
With `NC1(C(=O)O)CC2CCC1C2` (stereo not shown) [BCH] the “halo-induced p-mTOR increase in the presence of inhibitor” value ([1]; halo-treated cells plus BCH) was “reversed”, the “expression of 4-1BB, Granzyme B and IFN-γ in halo-treated cells” value ([1]; inhibitor added concurrent with Halofuginone (Rapamycin 20 nM)) was “inhibition of expression” and the “enhanced OXPHOS (basal OCR) in halo-treated cells” value [2] was “did not affect”.
In the case of `CCOC(=O)[C@@]1(CCCCCCOc2ccc(Cl)cc2)CO1` [etomoxir], the “effect on OCR in halo-treated cells” value ([2]; Etomoxir 4 μm injected in Seahorse) is reported as “minimal effects”.
`O=C(CC1NCCCC1O)Cn1cnc2cc(Br)c(Cl)cc2c1=O` (stereo not shown) [halofuginone] was tested, and the IFN-γ production ([1]; Halo 50 ng/mL for the last 48 hours of IL-2 expansion, vs vehicle) was “increased IFN-γ production”, the CD98 expression [1, 6] was “enhanced” and the “TNF-α and IL-2 production” value [1, 6] was “to a lesser extent, increased”. The “granzyme B expression” value [1, 6] was “significant increase”, the “polyfunctionality (co-expression of IFN-γ, TNF-α, IL-2)” value [1, 6] was “increased polyfunctionality” and the “surface expression of 4-1BB” value ([1]; flow cytometry, halo vs vehicle) was “increased percentage of cells expressing 4-1BB as well as a higher level of expression on a per cell basis”. The “autophagy (fluorescent staining of autophagosomes)” value ([1]; halo-treated cells vs vehicle) was “increased evidence of autophagy”, the p-mTOR ([1]; halo-treated cells vs vehicle) was “increase in p-mTOR” and the “surface markers of Tcm lineage (CD62L, CD44, CD127, CD25)” value ([1]; halo-treated cells, same as vehicle treated cells) was “CD62^Lo, CD44^Hi CD127^Lo and CD25^Hi”. For the same molecule, the “CD69+ CD103+ double-positive cells” value ([1]; halo-treated, unlike vehicle-treated control cells) was “induced a population of CD69^+ CD103^+ double-positive cells”, the ATP levels [2, 6] was “increase” and the “OCR (oxygen consumption rate)” value [2, 6] was “increase”. The “OCR:ECAR ratio” value [2, 6] was “increase”, the “4-1BB expression (RNA)” value [3] was “up-regulated” and the “Trm-associated genes, transcriptionally or translationally” value [3] was “very few of the Trm-associated genes were up-regulated”. For the same molecule, the “electron transport chain (ETC) complex genes” value [3] was “increased both transcription and translation of all five complexes”, the “genes associated with glycolysis, TCA cycle, fatty acid oxidation” value [3] was “Increased enrichment of genes associated with glycolysis and the TCA cycle, but not fatty acid oxidation” and the “ribosomal-associated Bhlhe40 transcripts” value [3] was “marked increase”. For the same molecule, the CD69 gene expression ([3]; among Trm-associated genes) was “one of the most upregulated genes”, the “expression of costimulatory and co-inhibitory molecules (transcriptional, translational and protein level)” value ([3]; panel of markers other than 4-1BB) was “not enhanced” and the “levels of amino acids” value [4] was “primarily up-regulated”. The “expression of 4-1BB, Granzyme B and CD98 in TCR+ T cells” value ([5]; DMF5 TCR transduced, Halofuginone 12.5 ng/mL, day 5, majority of patients) was “increased expression”, the OXPHOS ([5]; Halo 12.5 ng/mL, 5 days) was “enhanced” and the “expression of 4-1BB and CD98” value ([5]; Halo 12.5 ng/mL, 5 days) was “increasing”. For the same molecule, the “transduction efficiency of the DMF5 TCR” value ([5]; Halofuginone 12.5 ng/mL added on days 0 and 2) was “did not inhibit”.
With `CC[C@H]1/C=C/C=C/C[C@@H](C)[C@H](O)[C@@](C)(O)C(=O)[C@@H](C)[C@H](O)[C@@H](C)C(=O)[C@@H](C)[C@H](O)[C@@H](C)/C=C/C(=O)O[C@@H]2[C@H](C)[C@H](CC1)O[C@]1(CC[C@H](C)[C@H](C[C@@H](C)O)O1)[C@H]2C` [oligomycin] the “IFN-γ in halo-treated cells” value [1] was “marked reduction”.
